Reference: patent publication US20130267547A1, “PRODRUGS UTILIZING A TRANSPORTER-DIRECTED UPTAKE MECHANISM” (VIRGINIA COMMONWEALTH UNIVERSITY, priority 2010, published 2013)

Columns and labels:
[1] = tested on: BeWo cells; assay: Uptake of 3H-lopinavir, 3H-succinyl-lopinavir and 3H-carnitine-succinyl-lopinavir by BeWo cells, with and without transport inhibitors; details: for inhibition at 100 µM / inhibition at 250 µM: Homo sapiens, BeWo, read-out: Extent of Uptake Inhibition
Description: FIG. 10. […] BeWo cells (passage 38) were incubated with the compounds for 10 minutes at 37° C. or 4° C. in Dulbecco's phosphate buffered saline containing 0.05% bovine serum albumin. After incubation, the cells were washed with the cold buffer (lacking the compounds), and compounds were extracted from the cells into methanol followed by liquid scintillation analysis.
Specifically, bromosulfophthalein (BSP) is an inhibitor of several organic anion transporters (OATs; gene family SLC22A), as well as organic anion transporting polypeptides (OATPs; gene family SLCO). […] Finally, taurocholate is a classic substrate for bile salt transporters, including the sodium-dependent taurocholate transporter (NTCP; SLC10A1), the apical bile salt transporter (ASBT; SLC10A2), and certain OATPs.
The BeWo cell line is originally derived from a human choriocarcinoma. The BeWo cell line (Schwartz clone; passage 30) was a gift. BeWo cells in these studies is used between passages 30-70. BeWo cells are cultured in high glucose Dulbecco's modified Eagle's medium (DMEM) supplemented with 10% heat inactivated fetal bovine serum (FBS).

[2] = tested on: human primary cytotrophoblast cells; assay: Uptake of 3H-SLPV and 3H-LPV by primary cytotrophoblast cells; assay type: cell-based
From the text: We also isolated primary cytotrophoblast cells from one term (39 weeks gestation) placenta delivered by cesarean section. […] (FIG. 7).

[3] = tested on: plasma esterases; assay: Stability in human plasma; assay type: in vitro ADME
Description: The stability of SLPV was determined by incubating SLPV (20 μM) in human plasma from one healthy adult at 37° C. for 18 hours.

[4] = tested on: BeWo cells; assay: Uptake of non-radiolabelled LPV esters in BeWo cells (LC-MS/MS); assay type: cell-based, human; details: for Rank order of uptake: non-radiolabelled esters
Description: (§1) NMR spectroscopy was performed on the compounds including GLPV (FIG. 14A). […] An LC-MS/MS assay was developed and validated to determine concentrations of the novel compounds in biological matrices and fluids, as shown in FIG. 14B.

[5] = tested on: fresh human placental villous tissue; assay: Incubation of DGLPV with fresh human placental villous tissue (HPLC of medium and tissue); assay type: in vitro ADME
Description: DGLPV was synthesized as described above. The amount of DGLPV in the media originally containing 100 uM DGLPV was measured using HPLC as described above, and again after a 30 minute incubation with fresh human placental villous tissue in the same media.
To confirm that the DGLPV was taken up by the tissue and hydrolyzed therein, HPLC was used to measure the amount of free LPV present in the tissue.

[6] = Hydrolysis of LPV esters in vivo in rats
Description: as §1

[7] = tested on: P-glycoprotein; details: mice; cited from earlier work

Cc1cccc(C)c1OCC(=O)NC(Cc1ccccc1)[C@H](CC(Cc1ccccc1)NC(=O)[C@H](C(C)C)N1CCCNC1=O)OC(=O)CCC(=O)O (some centres unmarked) [SLPV, Succinyl-lopinavir]
Effect of ABC transporter inhibitor MK571 on uptake, in words [1]: slight increase in uptake
Effect of arachidonic acid on uptake, in words [1]: no effect
Temperature dependence of uptake, in words [1]: inhibited at reduced temperatures
Extent of Uptake Inhibition ([1]; Cold (4° C.), BeWo cells): 62%
inhibition at 100 µM [1]: -1%
inhibition at 250 µM [1]: 7%
Temperature dependence of uptake, in words ([1]; human, 10 minutes): significantly less than at 37 °C
Extent of Uptake Inhibition ([1]; linoleic acid (40 mM), BeWo cells): 40%
Extent of Uptake Inhibition ([1]; valproic acid (1 mM), BeWo cells): 5%
Temperature dependence of uptake, in words ([2]; 4° C. vs 37° C., cytotrophoblasts): temperature-dependent
Uptake relative to uptake of LPV ([2]; human placental cytotrophoblasts, 37° C., after 24 hrs in culture): 10 fold
Stability in human plasma, in words ([3]; 20 μM, human plasma from one healthy adult, 37° C., 18 hours): completely stable to plasma esterases
Temperature dependence of uptake, in words [4]: temperature dependent
Rank order of uptake [4]: GLPV>SLPV>DGLPV

Cc1cccc(C)c1OCC(=O)NC(Cc1ccccc1)[C@H](CC(Cc1ccccc1)NC(=O)[C@H](C(C)C)N1CCCNC1=O)OC(=O)COCC(=O)O (some centres unmarked) [DGLPV, Diglycolic-Lopinavir]
half-life ([3]; human, plasma, preliminary data, read-out: Plasma hydrolysis half-life (converted)): ~120 min
Amount of DGLPV in the medium after incubation with tissue ([5]; 100 uM DGLPV, 30 minute incubation): decrease in DGLPV in the medium
Hydrolysis in the tissue to release free lopinavir, in words ([5]; human placental villous tissue): can also be hydrolyzed in the tissue
Transport into human tissues, in words ([5]; human placental villous tissue): can also be transported into human tissues
Temperature dependence of uptake, in words [4]: temperature dependent
Rank order of uptake [4]: GLPV>SLPV>DGLPV
Hydrolysis in vivo, in words [6]: capable of being hydrolyzed in vivo

Cc1cccc(C)c1OCC(=O)NC(Cc1ccccc1)C(CC(Cc1ccccc1)NC(=O)C(C(C)C)N1CCCNC1=O)OC(=O)CCC(=O)O (centres unmarked) [SLPV, Succinyl-lopinavir]
Reduction of uptake in the presence of linoleic acid ([1]; 40 μM linoleic acid (LA), BeWo cells, p<0.05): 34%

Cc1cccc(C)c1OCC(=O)N[C@@H](Cc1ccccc1)[C@@H](O)C[C@H](Cc1ccccc1)NC(=O)[C@H](C(C)C)N1CCCNC1=O [LPV, lopinavir, reference compound]
Extent of Uptake Inhibition ([1]; Cold (4° C.), BeWo cells): 10%
inhibition at 100 µM [1]: 9%
inhibition at 250 µM [1]: 7%

CC(=O)O[C@H]1C(=O)[C@@]2(C)[C@H]([C@H](OC(=O)c3ccccc3)[C@]3(O)C[C@H](OC(=O)[C@H](O)[C@@H](NC(=O)c4ccccc4)c4ccccc4)C(C)=C1C3(C)C)[C@]1(OC(C)=O)CO[C@@H]1C[C@@H]2O [paclitaxel]
Fold more drug entering P-glycoprotein deficient Abcb1a−/−/1b−/− fetuses than wild type fetuses [7]: 16 fold
